In experiment [1] the test system is mouse cornea. Description: mouse corneal pocket model of angiogenesis. Format: in vivo. The protocol:
To confirm the angiogenic activity of hedgehog in another well accepted model of angiogenesis, we tested the ability of hedgehog protein to induce neovascularization in the mouse corneal model pocket model of angiogenesis.
Animals were anesthetized by pentobarbital intraperitoneal injection (160 mg/kg). Corneal pockets were created in the eyes of each mouse and a 0.34×0.34 mm sucrose albumin sulfate (Bukh Meditec, Vaerlose, DK) pellet coated with hydron polymer type NCC (Interferon Sciences, New Brunswick, N.J.) containing 1 of the agents indicated below was implanted into the corneal pocket. […] mice were divided into 5 groups: control buffer alone; VEGF 300 ng/pellet; Myr-Shh vehicle alone; Myr-Shh 1.5 microg/pellet […]; Myr-Shh+VEGF (1.5 microg/pellet +300 ng/pellet, respectively). Pellets were positioned 1.0 mm from the corneal limbus, and erythromycin ophthalmic ointment (E. Fourera) was applied to each operated eye. The corneas of all mice were routinely examined by slit-lamp biomicroscopy on postoperative day 6 after pellet implantation.
On the same day vessel length and corneal circumferential neovascularity (in degrees) were measured. After completing these measurements, C57BL/6J mice received an intravenous injection of […] of BS-1 lectin FITC-conjugated (Vector Laboratories, Burlingame, Calif.). Thirty minutes later, the animals were sacrificed. The eyes were enucleated and fixed in 1% paraformaldehyde solution. After fixation, the corneas were placed on glass slides and examined by fluorescence microscopy.
To determine the mechanism by which Shh induces angiogenesis both Shh and VEGF-stimulated corneas (see Example 3) were excised and X-gal stained as described in Example 1 after fixation of the whole eye for 1 hour in 1% paraformaldehyde followed by enucleation and fixation of the corneal hemisphere in 1% paraformaldehyde for 30 minutes. […] Endothelial cell immunostaining was done with a rat monoclonal antibody against mouse CD-31 (Pharmigen, San Diego, Calif.) followed by a biotinylated goat anti-rat immunoglobulin secondary antibody. Smooth muscle cells and pericytes were identified with a mouse monoclonal antibody against SM a-actin conjugated with alkaline-phosphatase (Sigma, St. Louis, Mo.) and fibroblasts were identified using an anti-vimentin antibody (Sigma, St. Louis, Mo.).
We then immunostained the Shh-induced corneas with a rabbit polyclonal anti-VEGF antibody (Santa Cruz Biotechnology, Santa Cruz, Calif.) with a biotinylated goat anti-rabbit immunoglobulin as secondary antibody.

For experiment [2], the system named is normal human fibroblasts (CCD37). Description: normal human fibroblasts (CCD37), competitive RT-PCR and VEGF165 ELISA. Format: cell-based. The protocol: To determine if hedgehog can directly induce fibroblasts to produce VEGF or other angiogenic factors, we treated normal human fibroblasts (CCD37) with Myr-Shh and the ability of fibroblasts to respond was evaluated by competitive RT-PCR for ptc 1 and several angiogenic growth factors. Total RNA was prepared from cells treated as described above using Trizol (Life Technologies, Rockville, Md.). Four micrograms of total RNA was used to prepare cDNA using the SuperScriptTM preamplification system (Cat. No. 18089-011, Life Technologies, Rockville, Md.). The PCR reaction using buffer reagents from the SuperScriptTM preamplification system (Life Technologies, Rockville, Md.) was quantitated with […] competitive primers (Ambion). Primers for the amplification of Ptc 1 were [NT] ID NO: 38) and [NT] ID NO: 39) which are based on ptc1 cDNA sequence (GenBank Accession Number U46155). All amplification for Ptc1 were done with 25 cycles of 94° C. for 30 sec; 55° C. for 1 min; 72° C. for 1 min. The cDNA from the same cells was also used as a template for VEGF, bFGF, Angiopoietin 1, and Angiopoietin II amplification. The following primer pairs and PCR cycles were used: […] [NT] ID NO: 40) and [NT] ID NO: 41) which are based on the human VEGF cDNA sequence (GenBank Accession Number E15157). VEGF product was amplified with 30 cycles of 94° C. for 30 sec; 62° C. for 1 min; 72° C. for 1 min; bFGF: [NT] ID NO: 42) and [NT] ID NO: 43) which is based on the human bFGF cDNA sequence (GenBank Accession Number M27968). bFGF product was amplified with 25 cycles of 94° C. for 30 sec; 62° C. for 1 min; 72° C. for 1 min; Angiopoietin I [NT] ID NO: 44) and [NT] ID NO: 45) which is based on human Angiopoietin I cDNA sequence (GenBank Accession Number U83508). Angiopoietin I product was amplified with 25 cycles of 94° C. for 30 sec; 64° C. for 90 sec; Angiopoietin II: [NT] ID NO:46) and [NT] ID NO: 47) which are based on human Angiopoietin II cDNA sequence (GenBank Accesion Number AB009865). Angiopoietin II product was amplified with 32 cycles of 94° C. for 30 sec; 64° C. for 90 sec. As internal control for sample preparation, gel loading, and random variations in RT-PCR, 18S rRNA primers and 18S rRNA competimers (Ambion, Austin, Tex.), used to modify 18S cDNA amplification efficiency, were included in each PCR reaction with target gene-specific primers. The linear range of amplification and optimal 18S primer/Competimer ratio was determined for each target gene following the manufacturer's recommendations (Ambion, Austin, Tex.). […] VEGF 121, 165, and 189 upregulation began at 12 hours and was maximal after 48 hours of incubation of the cells with Shh. […] Cells were stimulated with recombinant human myristolated Shh protein as described above. At harvest, the cell conditioned media was collected, centrifuged to remove cell debris (15 minutes at 1500×g) and production of VEGF165 protein was evaluated by using an ELISA kit (Quantikine human VEGF, R&D Systems, Minneapolis, Minn.).

Experiment [3] deals with human umbilical vein and microvascular endothelial cells. The experiment can be described thus: response of endothelial cells to Hh. Format: cell-based.
The test system of experiment [4] is vascular smooth muscle cells (PAC 1), normal human lung fibroblasts, normal prostate stromal cells. The experiment can be described thus: ptc 1 RT-PCR in smooth muscle cells, lung fibroblasts and prostate stromal cells. Format: cell-based. The following applies: 1 ug/ml for 2 days, vs vehicle. The protocol:
Eighty five percent confluent monolayers of vascular smooth muscle cells (PAC 1) were induced for 2 days with 1 ug/ml of myrShh or an equivalent volume of vehicle in normal media (M 199 complete media with 10% fetal bovine serum). For comparison, primary normal human lung fibroblasts and normal prostate stromal cells were grown in complete FBM and similarly stimulated (Clonetics/Bio-Whittaker, Walkersville, Md.). The cells were harvested and RNA from the cells was prepared and analysed by RT-PCR as above. […] In addition, hedgehog protein induced DNA synthesis in quiescent vascular SMCs and human fibroblasts. PAC-1 (Rothman et al., 1992), WKY (Lemire et al., 1994), primary pulmonary artery SMCs or aortic SMCs (Clonetics/Bio-Whittaker, Walkersville, Md.) were plated (5×10^3/well) in 96 well plates and allowed to adhere for 2-3 hours in 0.18 ml of complete media (M 199 with 10% fetal bovine serum for PAC 1 cells, DMEM with 10% fetal bovine serum for WKY cells or smGM-2 for primary human pulmonary artery or aortic SMCs). The cells were then starved for 18-24 hours in complete media with 0.5% fetal bovine serum. […] 3H-thymidine uptake into cells was determined by scintillation counting using a 1205 Betaplate counter (Wallac, Gaithersburg, Md.).

For experiment [5], the system named is Shh signaling pathway in MEFs homozygous for ptc-lacZ (cell line 23-1). The experiment can be described thus: β-galactosidase activity in ptc-lacZ homozygous mouse embryonic fibroblasts. Format: cell-based. The following applies: normalized to whole protein content.
Text: These studies involve the use of mouse embryonic fibroblasts (MEFs) that were generated by trypsin digestion of E8.5 embryos from patched (ptc) ±matings. […] Thus, in these ptc−/− embryos, the Shh signaling pathway is activated in many tissues, and the lacZ gene product β-galactosidase is expressed in all of those tissues as a report of pathway activation.
The Shh signaling pathway can be activated in these fibroblasts in cell culture, and that the level of β-galactosidase activity does reflect the degree of pathway activation. The MEF line 23-4 is heterozygous for ptc-lacZ, and thus contains one functional ptc allele capable of maintaining a repressed state of the pathway, but will express lacZ when the pathway is activated by addition of Shh protein.
Where [6] appears, read: pellet: Myr-Shh 1.5 microg or VEGF 300 ng.

With “Myr-Shh: recombinant human myristolated Shh protein (myristylated Sonic hedgehog)”, the “X-gal staining (Ptc 1 expression) of corneas” value in experiment [1] (Ptc1-lacZ corneas) is reported as “strong X-gal staining”. Further, the “VEGF immunostaining of corneas” value in experiment [1] (anti-VEGF antibody) was “VEGF protein is in the fibroblasts and matrix immediately adjacent to the neovascular area”. Further, the density of vessels result in experiment [1] (compared with VEGF) is given as “slightly lower”. Besides, in experiment [1] (setting [6]), the maximum vessel lengths is on record as 1020+200 um and the “vessel diameters (mean)” value came to 33±17 um. The neovascular growth entry in experiment [1] (pellet: Myr-Shh 1.5 microg or VEGF 300 ng, day 6) is listed as “significant neovascular growth”. For the same compound, the “vessel length, circumferential neovascularity and diameter of the lumens” value in experiment [1] (summary) is on record as “statistically significant increase”. Moreover, in experiment [2], the “start of VEGF 121, 165 and 189 upregulation” value amounted to 12 h; the “time of maximal VEGF 121, 165 and 189 upregulation” value was 48 h; the “time of maximal increase of Ang-1 and Ang-2” value came out at 36 h. Also, the “VEGF mRNA isoforms (VEGF121, 165, 189)” value in experiment [2] (RT-PCR) was “strongly upregulated”. In addition, the “bFGF mRNA” value in experiment [2] (any time-points) is “No bFGF upregulation was detectable”. Further, in experiment [2] (at 72 hours), the “VEGF production (VEGF165 protein in cell media, ELISA)” value is “significant upregulation”. Also, the “Ang-1 and Ang-2 mRNA” value in experiment [2] (quantitative RT-PCR) is on record as “upregulation of both genes”. Besides, the Ptc1 gene expression result in experiment [2] (time course) was “upregulating the Ptc1 gene”. Also, the “response to Hh” value in experiment [3] was “Neither human umbilical vein and microvascular endothelial cells respond”. In addition, the “ptc 1 expression” value in experiment [4] is recorded as “increased ptc 1 expression”.
On to `C[C@H]1CC[C@]2(NC1)O[C@H]1C[C@H]3[C@@H]4CC[C@H]5C[C@@H](O)CC[C@]5(C)[C@H]4CC[C@]3(C)[C@H]1[C@@H]2C` [tomatidine], for which the β-galactosidase activity result in experiment [5] is given as “cannot be achieved”.

Values taken from patent publication US7498304B2, “Angiogenesis-modulating compositions and uses” (Curis, Inc., priority 2002, dated 2009).
